Experimental data: patent US5663207A, “Gem-dichlorocyclopropanes as antitumor agents” (priority 1995, dated 1997)

What was measured:
[1] = molecular target: T1, estrogen receptor (Rattus norvegicus, UniProt P06211); settings: cited from earlier work
T1 construct: ovariectomized rat uterine cytosolic estrogen receptor preparation; from tissue; host or cells: uterine cytosol of ovariectomized Sprague-Dawley rats (immature rats from Sasco are named as uterus source, mature ovariectomized rats)
T1 sequence (P06211 1-600): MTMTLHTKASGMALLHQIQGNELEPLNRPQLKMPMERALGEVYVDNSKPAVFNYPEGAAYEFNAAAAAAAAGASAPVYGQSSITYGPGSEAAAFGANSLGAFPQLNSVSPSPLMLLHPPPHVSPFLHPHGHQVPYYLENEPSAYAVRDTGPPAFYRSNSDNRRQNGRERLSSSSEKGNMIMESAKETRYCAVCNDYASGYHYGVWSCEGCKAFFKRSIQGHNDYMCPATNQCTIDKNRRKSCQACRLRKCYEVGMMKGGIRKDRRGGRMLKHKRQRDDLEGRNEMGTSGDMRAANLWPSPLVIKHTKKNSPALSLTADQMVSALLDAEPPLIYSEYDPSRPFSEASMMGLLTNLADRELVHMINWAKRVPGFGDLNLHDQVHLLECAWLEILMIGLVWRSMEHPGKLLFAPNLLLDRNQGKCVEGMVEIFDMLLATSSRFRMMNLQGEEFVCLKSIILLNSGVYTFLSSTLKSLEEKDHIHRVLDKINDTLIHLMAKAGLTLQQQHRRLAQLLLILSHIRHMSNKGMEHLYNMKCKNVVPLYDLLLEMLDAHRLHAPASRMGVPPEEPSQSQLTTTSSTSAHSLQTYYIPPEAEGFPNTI

[2] = system: Immature Swiss-Webster female mice (estradiol-stimulated uterine weight); test: Antiuterotrophic assay for antiestrogenic activity in immature mice; assay type: in vivo, mouse (Swiss-Webster); settings: 0.4, 0.8, and 1.6 mg; three-day assay; estradiol 0.03 μg
Excerpt: The biological evaluation of the test compounds consisted of the in vitro rat cytosolic estradiol receptor binding assay, the in vivo immature mouse uterotrophic (estrogenic) and antiuterotrophic (antiestrogenic) assays, and the in vitro suppression of the proliferation of the ER positive MCF-7 human breast cancer cell line.
Vital-free immature female Swiss-Webster mice were obtained at 17-19 days of age from Sasco weighing 8-10 g, and were used in the uterotrophic and antiuterotrophic assays. Immature female Sprague-Dawley rats, obtained at 17-19 days of age from Sasco, weighing 28-33 g, were used as sources of uteri for the estradiol receptor binding assay. Animals were housed in wire topped polycarbonate cages at six animals per cage, with the environment controlled at 25° C. and a 12 h light/dark cycle. […]
The antiestrogenic assay was conducted as described for the estrogenic assay, except that each mouse in the cyclopropyl treatment groups received a standard stimulating dose of estradiol (0.03 μg) in sesame oil (0.1 mL) and the test compounds or MER 25 were administered in isopropyl myristate (0.05 mL) in a dosage range of 0.4, 0.8 and 1.6 mg (total dose). […] Antiestrogenic activity was measured as a decrease in the estradiol-stimulated […] response in groups that received both the test compound and estradiol as compared to the group treated only with estradiol.

In the case of CCN(CC)CCOc1ccc(C(O)(Cc2ccc(OC)cc2)c2ccccc2)cc1 (stereo not drawn) [MER-25], the “RBA (relative binding affinity)” value ([1]; relative to estradiol = 100%, footnote e, Day et al. (1991)) is given as “--^e (Less than 0.01%.)”, the “[3H]-estradiol displacement curve (in words)” value ([1]; standards, Day et al., 1991) is given as “very weak dose-related displacement” and the “antiestrogenic activity: effect on estradiol-induced uterine weight gain (in words)” value [2] is given as “significant reduction in estradiol-induced uterotrophic activity”.
